Experimental data: US9695192B2, “Fused heterocyclic compounds as ion channel modulators” (GILEAD SCIENCES, INC., priority 2011, dated 2017)
Read-outs that look alike come from different tables or passages of the source.

What was measured:
[1] = molecular target: wild-type human cardiac sodium channel, hNav1.5 (Homo sapiens, UniProt Q14524); assay: Late INa screening assay (QPatch whole cell patch clamp, tefluthrin-enhanced late sodium current); format: cell-based; details: HEK293 hNav1.5, late INa activated with 10 μM Tefluthrin
Sequence of wild-type human cardiac sodium channel, hNav1.5 (Q14524 whole entry): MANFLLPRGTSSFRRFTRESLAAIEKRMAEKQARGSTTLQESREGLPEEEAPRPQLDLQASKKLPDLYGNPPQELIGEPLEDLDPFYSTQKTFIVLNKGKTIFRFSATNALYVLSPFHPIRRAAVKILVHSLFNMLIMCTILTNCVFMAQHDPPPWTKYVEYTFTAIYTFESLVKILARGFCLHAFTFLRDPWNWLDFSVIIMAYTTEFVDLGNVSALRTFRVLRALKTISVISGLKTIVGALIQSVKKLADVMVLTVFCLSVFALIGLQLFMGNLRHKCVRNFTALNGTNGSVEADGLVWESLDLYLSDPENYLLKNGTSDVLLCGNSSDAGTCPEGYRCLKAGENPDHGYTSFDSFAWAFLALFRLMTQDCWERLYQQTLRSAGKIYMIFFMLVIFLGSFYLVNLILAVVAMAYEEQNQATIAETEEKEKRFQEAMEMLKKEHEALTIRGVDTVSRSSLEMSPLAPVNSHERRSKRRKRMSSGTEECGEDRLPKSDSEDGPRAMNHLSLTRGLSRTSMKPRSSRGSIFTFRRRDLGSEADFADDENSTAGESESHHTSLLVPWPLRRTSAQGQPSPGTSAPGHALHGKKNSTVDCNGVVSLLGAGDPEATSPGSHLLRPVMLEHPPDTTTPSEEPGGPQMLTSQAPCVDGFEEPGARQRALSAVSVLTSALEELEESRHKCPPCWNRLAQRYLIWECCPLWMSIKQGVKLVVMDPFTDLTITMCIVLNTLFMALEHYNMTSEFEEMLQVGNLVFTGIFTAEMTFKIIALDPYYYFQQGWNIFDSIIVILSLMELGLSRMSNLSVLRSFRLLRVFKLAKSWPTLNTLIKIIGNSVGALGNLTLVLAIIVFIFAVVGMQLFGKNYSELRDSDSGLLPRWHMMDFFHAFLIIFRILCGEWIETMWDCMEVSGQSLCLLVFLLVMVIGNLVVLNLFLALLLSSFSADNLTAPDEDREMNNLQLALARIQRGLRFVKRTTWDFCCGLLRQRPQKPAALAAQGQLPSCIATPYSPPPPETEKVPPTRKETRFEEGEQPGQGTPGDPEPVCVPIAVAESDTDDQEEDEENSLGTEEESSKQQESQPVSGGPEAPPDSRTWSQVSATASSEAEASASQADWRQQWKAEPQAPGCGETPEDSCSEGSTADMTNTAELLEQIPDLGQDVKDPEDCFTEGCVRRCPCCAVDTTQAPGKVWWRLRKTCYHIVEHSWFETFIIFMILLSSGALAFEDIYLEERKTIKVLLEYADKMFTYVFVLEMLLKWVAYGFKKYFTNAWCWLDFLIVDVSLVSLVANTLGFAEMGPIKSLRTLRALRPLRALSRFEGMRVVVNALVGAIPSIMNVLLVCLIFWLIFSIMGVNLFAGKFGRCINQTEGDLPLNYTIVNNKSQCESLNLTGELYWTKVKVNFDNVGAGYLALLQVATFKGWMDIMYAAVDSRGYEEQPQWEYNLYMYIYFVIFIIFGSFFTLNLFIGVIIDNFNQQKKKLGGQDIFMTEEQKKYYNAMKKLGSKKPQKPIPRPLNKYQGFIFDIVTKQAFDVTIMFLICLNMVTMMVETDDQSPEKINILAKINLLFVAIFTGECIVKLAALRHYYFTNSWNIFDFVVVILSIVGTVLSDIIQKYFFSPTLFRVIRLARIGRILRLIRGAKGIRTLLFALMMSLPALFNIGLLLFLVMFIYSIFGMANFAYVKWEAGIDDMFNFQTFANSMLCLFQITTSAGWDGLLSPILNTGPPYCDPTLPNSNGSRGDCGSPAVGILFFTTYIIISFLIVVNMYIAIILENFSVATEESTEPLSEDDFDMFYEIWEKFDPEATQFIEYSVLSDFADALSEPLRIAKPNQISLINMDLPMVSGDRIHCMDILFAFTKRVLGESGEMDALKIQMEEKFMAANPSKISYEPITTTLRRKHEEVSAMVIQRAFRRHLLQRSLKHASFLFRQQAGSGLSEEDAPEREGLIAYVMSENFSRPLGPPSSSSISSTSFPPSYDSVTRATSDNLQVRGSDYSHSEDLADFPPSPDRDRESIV
Description: The late sodium current (Late INa) and peak sodium current (Peak INa) assays are performed on an automated electrophysiology platform, QPatch 16X (Sophion Bioscience, Copenhagen, Denmark), which uses the whole cell patch clamp technique to measure currents through the cell membrane of up to 16 cells at a time. The assay uses an HEK293 (human embryonic kidney) cell line heterologously expressing the wild-type human cardiac sodium channel, hNav1.5, purchased from Millipore (Billerica, Mass.). No beta subunits were coexpressed with the Na channel alpha subunit. Cells are maintained with standard tissue culture procedures and stable channel expression is maintained with 400 μg/mL Geneticin in the culture medium. Cells isolated for use on QPatch are incubated for 5 minutes in Detachin 1X (Genlantis, San Diego, USA) at 37° C. to ensure that 80-90% of the cells are single and not part of a cell cluster. Experiments are carried out at 23-25° C.
For both the Late INa and Peak INa assays, series resistance compensation is set to 100% and series resistance and whole-cell compensation are performed automatically. Currents are digitized at 25 kHz and low-pass filtered at 12 kHz and 10 kHz for the late and peak INa assays, respectively. Currents through open sodium channels are automatically recorded and stored in the Sophion Bioscience Oracle database (Sophion Bioscience, Copenhagen, Denmark). Analysis is performed using QPatch Assay and database software and data are compiled in Excel.
Compound stocks are routinely made by the Gilead Sample Bank in plastic vials to 10 mM in dimethyl sulfoxide (DMSO). In some cases, when compounds are not soluble in DMSO, they are made in 100% ethanol. Stocks are sonicated as necessary. The extracellular solution for screening Late INa is composed of: 140 mM NaCl, 4 mM KCl, 1.8 mM CaCl2, 0.75 mM MgCl2 and 5 mM HEPES with pH adjusted to 7.4 using NaOH. The intracellular solution used to perfuse the inside of the cells for both the Late INa and Peak INa assays contains: 120 mM CsF, 20 mM CsCl, 5 mM EGTA, 5 mM HEPES and pH adjusted to 7.4 with CsOH. Compounds are diluted in extracellular solution to 1 μM in glass vials and then transferred to glass well plates before robotic addition to the cells. A 0 mM Na extracellular solution (0 Na-ECF) is used at the end of each experiment for the Late INa and Peak INa assays to measure baseline current contains: 140 mM N-methyl-D-glucamine; 4 mM KCl; 1.8 mM CaCl2; 0.75 mM MgCl2; 5 mM HEPES and pH was adjusted to 7.4 with HCl.
For the hNav1.5 Late INa assay, sodium channels are activated every 10 seconds (0.1 Hz) by depolarizing the cell membrane to −20 mV for 250 milliseconds (ms) from a holding potential of −120 mV. In response to a −20 mV voltage step, typical hNav1.5 sodium currents activate rapidly to a peak negative current and then inactivate nearly completely within 3-4 ms.
Compounds were tested to determine their activity in blocking the late sodium current. Late INa was generated by adding 10 μM Tefluthrin (pyrethroid) to the extracellular solution while recording Na currents. To confirm the block of late INa observed using the automated screening method, a second late INa enhancer (ATX-II) and the manual patch clamp method were used. ATX-II and tefluthrin occupy distinct, non-overlapping binding sites and modify Na^+ channel function differently to increase late INa. Compounds tested have been found generally to inhibit the enhanced late INa caused by either late INa enhancer. For the purposes of the screening, late INa is defined as the mean current between 225 ms and 250 ms after stepping to −20 mV to activate Na channels. After establishing the whole cell recording configuration, late INa activator is added to each well 4 times over a 16-17 minute period so that the late component of the Na current reaches a stable value. Compounds were then added (typically at 1 μM), in the presence of the late INa activator, with 3 additions over the course of 7 or 8 minutes. […]

hNav1.5 Peak INa = hNav1.5 Peak INa (Homo sapiens, UniProt Q14524); assay: Peak INa screening assay (tonic block and use-dependent block); format: cell-based
Sequence of hNav1.5 Peak INa (Q14524 whole entry): as above
Description: The assay uses an HEK293 (human embryonic kidney) cell line heterologously expressing the wild-type human cardiac sodium channel, hNav1.5, purchased from Millipore (Billerica, Mass.). No beta subunits were coexpressed with the Na channel alpha subunit. Cells are maintained with standard tissue culture procedures and stable channel expression is maintained with 400 μg/mL Geneticin in the culture medium. […] Experiments are carried out at 23-25° C. […] Currents through open sodium channels are automatically recorded and stored in the Sophion Bioscience Oracle database (Sophion Bioscience, Copenhagen, Denmark). Analysis is performed using QPatch Assay and database software and data are compiled in Excel. Compound stocks are routinely made by the Gilead Sample Bank in plastic vials to 10 mM in dimethyl sulfoxide (DMSO). […] Stocks are sonicated as necessary. […] Compounds are diluted in extracellular solution to 1 μM in glass vials and then transferred to glass well plates before robotic addition to the cells. […] Good separation between the concentrations of test compound to reduce late and peak INa is beneficial to enable separation of the desired effect to reduce late INa-induced electrical and mechanical dysfunction from the undesired effect to reduce peak INa, which can lead to slowing or block of conduction of electrical excitation in the heart. It is contemplated that the compounds of Formula I avoid significant block of peak INa. […] Analysis of peak INa generally requires correction for rundown before determining the % block of peak current by the tested compound. […] Use-dependent block refers to the accumulation of block with increased frequency of channel activation. […] It is therefore expected that reduction of peak INa by compounds of this disclosure will be greater at high heart rates, such as those during tachyarrhythmias, than at normal heart rates. […] The intracellular solution used for the Peak INa assay is the same as outlined for the Late INa assay (see above). […] After establishing the whole cell recording configuration, channels were stimulated to open with low frequency stimulation (0.1 Hz) for 7 minutes so that the recording can be monitored and the extent to which the recording has stabilized can be assessed. […] Both TB and UDB were analyzed by incorporating rundown correction for the peak INa and UDB as calculated by compensating for the small use-dependent effect of the stimulation protocol on peak INa in the absence of compound.

[2] = at 1 μM, 3 Hz stimulation, holding potential −100 mV, read-out: Peak UDB (use-dependent block of peak INa) % Inhibition
[3] = read-out: Peak TB (tonic block of peak INa) % Inhibition

With `FC(F)(F)c1ccc(-c2ccc3c(c2)C(NCC2CC2)=NCCO3)cc1` [II-11, N-(cyclopropylmethyl)-7-(4-(trifluoromethyl)phenyl)-2,3-dihydrobenzo[f][1,4]oxazepin-5-amine] as the molecule, how does the inhibition at 1 µM [1] read?
Its inhibition at 1 µM is 41%.

What about the inhibition at 1 µM (hNav1.5 Peak INa; [2]) of the same molecule?
The inhibition at 1 µM was 31%.

What about the inhibition at 1 µM (hNav1.5 Peak INa; [3]) of the same molecule?
Its inhibition at 1 µM is 11%.

With `FC(F)(F)c1ccc(-c2ccc3c(c2)C(NCCOc2ccccc2)=NCCO3)cc1` [II-22, N-(2-phenoxyethyl)-7-(4-(trifluoromethyl)phenyl)-2,3-dihydrobenzo[f][1,4]oxazepin-5-amine] as the molecule, how does the inhibition at 1 µM [1] read?
Its inhibition at 1 µM is 60%.

And the inhibition at 1 µM (hNav1.5 Peak INa; [2])?
Its inhibition at 1 µM is 69%.

What about the inhibition at 1 µM (hNav1.5 Peak INa; [3]) of the same molecule?
The inhibition at 1 µM was 19%.

How did the inhibition at 1 µM [1] turn out when `FC(F)(F)c1ccc(-c2ccc3c(c2)C(N2CCC(c4ccccn4)C2)=NCCO3)cc1` (stereo not drawn) [II-60, 5-(3-(pyridin-2-yl)pyrrolidin-1-yl)-7-(4-(trifluoromethyl)phenyl)-2,3-dihydrobenzo[f][1,4]oxazepine] was run?
The inhibition at 1 µM was 42%.

What about the inhibition at 1 µM (hNav1.5 Peak INa; [2]) of the same molecule?
Its inhibition at 1 µM is 25%.

What about the inhibition at 1 µM (hNav1.5 Peak INa; [3]) of the same molecule?
The inhibition at 1 µM was 10%.

How did the inhibition at 1 µM [1] turn out when `CC(C)(C)OC(=O)N1CCC(NC2=NCCOc3ccc(-c4ccc(C(F)(F)F)cc4)cc32)C1` (stereo not drawn) [II-62, tert-butyl 3-(7-(4-(trifluoromethyl)phenyl)-2,3-dihydrobenzo[f][1,4]oxazepin-5-ylamino)pyrrolidine-1-carboxylate] was run?
The inhibition at 1 µM was 43%.

What about the inhibition at 1 µM (hNav1.5 Peak INa; [2]) of the same molecule?
Its inhibition at 1 µM is 32%.

What about the inhibition at 1 µM (hNav1.5 Peak INa; [3]) of the same molecule?
The inhibition at 1 µM was 8%.

How did the inhibition at 1 µM [1] turn out when `CC(C)(C)OC(=O)N1CC[C@H](NC2=NCCOc3ccc(-c4ccc(C(F)(F)F)cc4)cc32)C1` [II-43, (S)-tert-butyl 3-(7-(4-(trifluoromethyl)phenyl)-2,3-dihydrobenzo[f][1,4]oxazepin-5-ylamino)pyrrolidine-1-carboxylate] was run?
Its inhibition at 1 µM is 46%.

What about the inhibition at 1 µM (hNav1.5 Peak INa; [2]) of the same molecule?
The inhibition at 1 µM was 31%.

And the inhibition at 1 µM (hNav1.5 Peak INa; [3])?
The inhibition at 1 µM was 12%.

`O=C(N[C@@H]1CCN(C2=NCCOc3ccc(-c4ccc(C(F)(F)F)cc4)cc32)C1)c1ncccn1` [II-46, (R)—N-(1-(7-(4-(trifluoromethyl)phenyl)-2,3-dihydrobenzo[f][1,4]oxazepin-5-yl)pyrrolidin-3-yl)pyrimidine-2-carboxamide] was tested. Which inhibition at 1 µM [1] did it give?
Its inhibition at 1 µM is 4%.

Which inhibition at 1 µM [1] does the source give for `CN1CCN(C2=NCCOc3ccc(-c4ccc(C(F)(F)F)cc4)cc32)CC1` [II-52, 5-(4-methylpiperazin-1-yl)-7-(4-(trifluoromethyl)phenyl)-2,3-dihydrobenzo[f][1,4]oxazepine] here?
The inhibition at 1 µM was 10%.

With `FC(F)(F)c1ccc(-c2ccc3c(c2)C(NCc2ncccn2)=NCCO3)cc1` [II-7, N-(pyrimidin-2-ylmethyl)-7-(4-(trifluoromethyl)phenyl)-2,3-dihydrobenzo[f][1,4]oxazepin-5-amine] as the molecule, how does the inhibition at 1 µM [1] read?
The inhibition at 1 µM was 14%.

`FC(F)(F)c1ccc(-c2ccc3c(c2)C(NCc2ccccn2)=NCCO3)cc1` [II-10, N-(pyridin-2-ylmethyl)-7-(4-(trifluoromethyl)phenyl)-2,3-dihydrobenzo[f][1,4]oxazepin-5-amine] was tested. Which inhibition at 1 µM [1] did it give?
The inhibition at 1 µM was 32%.

What does the source list for `CN(C)[C@H]1CCN(C2=NCCOc3ccc(-c4ccc(C(F)(F)F)cc4)cc32)C1` [II-15, (S)—N,N-dimethyl-1-(7-(4-(trifluoromethyl)phenyl)-2,3-dihydrobenzo[f][1,4]oxazepin-5-yl)pyrrolidin-3-amine]?
inhibition at 1 µM [1]: 49%; inhibition at 1 µM (hNav1.5 Peak INa; [2]): 27%; inhibition at 1 µM (hNav1.5 Peak INa; [3]): 16%

`FC(F)(F)c1ccc(-c2ccc3c(c2)C(N2CCN(C4CC4)CC2)=NCCO3)cc1` [II-31, 5-(4-cyclopropylpiperazin-1-yl)-7-(4-(trifluoromethyl)phenyl)-2,3-dihydrobenzo[f][1,4]oxazepine] was tested. Which inhibition at 1 µM [1] did it give?
The inhibition at 1 µM was 24%.

Which inhibition at 1 µM [1] does the source give for `Cn1ccnc1CNC1=NCCOc2ccc(-c3ccc(C(F)(F)F)cc3)cc21` [II-17, N-((1-methyl-1H-imidazol-2-yl)methyl)-7-(4-(trifluoromethyl)phenyl)-2,3-dihydrobenzo[f][1,4]oxazepin-5-amine] here?
Its inhibition at 1 µM is 10%.

`O=C1CCCN1C1CCN(C2=NCCOc3ccc(-c4ccc(C(F)(F)F)cc4)cc32)CC1` [II-42, 1-(1-(7-(4-(trifluoromethyl)phenyl)-2,3-dihydrobenzo[f][1,4]oxazepin-5-yl)piperidin-4-yl)pyrrolidin-2-one] was tested. Which inhibition at 1 µM [1] did it give?
Its inhibition at 1 µM is 9%.

How did the inhibition at 1 µM [1] turn out when `CN(C(=O)OC(C)(C)C)[C@H]1CCN(C2=NCCOc3ccc(-c4ccc(C(F)(F)F)cc4)cc32)C1` [II-40, (S)-tert-butyl methyl(1-(7-(4-(trifluoromethyl)phenyl)-2,3-dihydrobenzo[f][1,4]oxazepin-5-yl)pyrrolidin-3-yl)carbamate] was run?
Its inhibition at 1 µM is 18%.

Which results are given for `CC(C)(C)OC(=O)N1CC[C@@H](NC2=NCCOc3ccc(-c4ccc(C(F)(F)F)cc4)cc32)C1` [II-63, (R)-tert-butyl 3-(7-(4-(trifluoromethyl)phenyl)-2,3-dihydrobenzo[f][1,4]oxazepin-5-ylamino)pyrrolidine-1-carboxylate]?
inhibition at 1 µM [1]: 51%; inhibition at 1 µM (hNav1.5 Peak INa; [2]): 31%; inhibition at 1 µM (hNav1.5 Peak INa; [3]): 12%

`FC(F)(F)c1ccc(-c2ccc3c(c2)C(NC2CC2)=NCCO3)cc1` [II-4, N-cyclopropyl-7-(4-(trifluoromethyl)phenyl)-2,3-dihydrobenzo[f][1,4]oxazepin-5-amine] was tested. Which inhibition at 1 µM [1] did it give?
Its inhibition at 1 µM is 25%.

Which inhibition at 1 µM [1] does the source give for `FC(F)(F)c1ccc(-c2ccc3c(c2)C(Nc2cccc(C(F)(F)F)n2)=NCCO3)cc1` [II-27, 7-(4-(trifluoromethyl)phenyl)-N-(6-(trifluoromethyl)pyridin-2-yl)-2,3-dihydrobenzo[f][1,4]oxazepin-5-amine] here?
Its inhibition at 1 µM is 1%.

`FC(F)(F)c1ccc(-c2ccc3c(c2)C(N2CCC(N4CCOCC4)C2)=NCCO3)cc1` (stereo not drawn) [II-55, 5-(3-morpholinopyrrolidin-1-yl)-7-(4-(trifluoromethyl)phenyl)-2,3-dihydrobenzo[f][1,4]oxazepine] was tested. Which inhibition at 1 µM [1] did it give?
Its inhibition at 1 µM is 18%.

Which inhibition at 1 µM [1] does the source give for `N[C@@H]1CCN(C2=NCCOc3ccc(-c4ccc(C(F)(F)F)cc4)cc32)C1` [II-41, (R)-1-(7-(4-(trifluoromethyl)phenyl)-2,3-dihydrobenzo[f][1,4]oxazepin-5-yl)pyrrolidin-3-amine] here?
Its inhibition at 1 µM is 6%.
